Laboratory results as given in patent publication US8962244B2, “Compounds for modulating RNA binding proteins and uses therefor” (University of Massachusetts, priority 2009, dated 2015).

These compounds were tested against T1, POS-1 (Caenorhabditis elegans, UniProt G5EF15) (assay: Fluorescence polarization screening of POS-1 binding to fluorescein-labeled BMF018 RNA). Conditions: 192 μM test compound; score = polarization relative to no-drug and no-protein controls; 0.25 = 75% inhibition; lowest score = greatest inhibition; read-out: POS-1 score.
T1 construct: 6-his tag (N); made in house; host or cells: E. coli BL21 (DE3) Gold
T1 sequence (G5EF15 80-180): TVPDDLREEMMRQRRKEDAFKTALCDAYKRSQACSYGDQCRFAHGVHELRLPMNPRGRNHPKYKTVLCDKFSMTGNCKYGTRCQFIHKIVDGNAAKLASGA

Compound | remaining activity at 192 µM [%]
COC(=O)c1c(NC(=O)CCC(=O)O)sc2c1CCC(C(C)(C)C)C2 (centres unmarked) [DM] | 14.4
Cc1ccc(NS(=O)(=O)c2ccc(F)cc2)c(NS(=O)(=O)c2ccc(F)cc2)c1 [DS] | 17.7
Cc1cc(OCC(=O)Nc2ccc(S(=O)(=O)Nc3nccs3)cc2)ccc1Br [DT] | 17.7
COc1cc(-c2n[nH]c(=S)[nH]2)cc(OC)c1OC [DU] | 18
Cc1ccc(C)c(OCC(=O)Nc2ccc(S(=O)(=O)Nc3nccs3)cc2)c1C [DW] | 19
Cc1ccc(S(=O)(=O)NCc2nc3ccccc3[nH]2)cc1 [DY] | 20
CCOC(=O)c1c(NC(=O)C2CC=CCC2C(=O)O)sc(C)c1-c1ccc(Cl)cc1 (centres unmarked) [EA] | 20.3
C#CCSc1nc2sc3c(c2c(=O)n1C)CCC3 [EB] | 21
O=S(=O)(NCc1nc2ccccc2[nH]1)c1ccc(Cl)cc1 [EC] | 21.7
CC(=O)Nc1nc2ccc(S(=O)(=O)NC(C)=O)cc2s1 [ED] | 22
CCOC(=O)C1=C(C)Nc2[nH]c(=O)[nH]c(=O)c2C1c1ccccc1[N+](=O)[O-] (centres unmarked) [EF] | 22.8
Cc1ccc(CC(=O)Nc2ccc(S(=O)(=O)Nc3nccs3)cc2)cc1 [EK] | 23.7
Cc1ccc2c(Cl)c(C(=O)Nc3nnn[nH]3)sc2c1 [EL] | 23.8
Sc1nnc(-c2cc(-c3ccccc3)nc3ccccc23)o1 [EM] | 24.2
Cc1cc(NS(=O)(=O)c2ccc(Nc3nc(-c4ccc(F)c(C)c4)cs3)cc2)no1 [EN] | 24.7
CCCCC(=O)NC(c1ccccc1Cl)c1cc([N+](=O)[O-])c2cccnc2c1O (centres unmarked) [ET] | 26.5
CCCC(=O)NC(c1ccc(Cl)cc1)c1cc([N+](=O)[O-])c2cccnc2c1O (centres unmarked) [EU] | 26.6
CC(C)(C)c1ccc(C(=O)Nc2ccc(S(=O)(=O)Nc3nccs3)cc2)cc1Br [EV] | 27.5

Results, then the compound that gave them:

remaining activity at 192 µM [%] | Compound
14.3 | CCOC(=O)c1ccc(N2NC(=O)/C(=C/c3cccc(OC(=O)c4cccs4)c3)C2=O)cc1 [DL]
16.7 | CC1=NN(c2ccc(S(N)(=O)=O)cc2)C(=O)/C1=C\c1ccc(OC(=O)c2cccs2)cc1 [DN]
16.7 | CCOc1ccc(C(=O)NC(=S)Nc2ccccc2C(=O)O)cc1Br [DO]
16.8 | Cc1cc(NS(=O)(=O)c2ccc(NC(=O)c3ccc(C(C)(C)C)c(Br)c3)cc2)no1 [DP]
17.2 | O=C(Nc1cc(NC(=O)c2ccccc2)cc(C(=O)Nc2ccc(O)cc2C(=O)O)c1)c1ccccc1 [DQ]
17.2 | CCOC(=O)c1ccc(N2NC(=O)/C(=C/c3ccc(OC(=O)c4ccco4)c(OC)c3)C2=O)cc1 [DR]
18.5 | O=C(NC(=S)Nc1ccccc1C(=O)O)c1cc(I)ccc1Cl [DV]
19.7 | COc1cc(/C=C2\C(=O)N(c3cccc(C(=O)O)c3)N=C2C)ccc1OC(=O)c1ccco1 [DX]
20.1 | O=C(NC(=S)Nc1ccc(C(=O)O)c(Cl)c1)c1ccc(Cl)c(Cl)c1 [DZ]
22.5 | CCOc1cc(/C=C2\C(=O)N(c3ccc(C(=O)O)cc3)N=C2C)ccc1OC(=O)c1cccs1 [EE]
22.9 | O=C1NN(c2ccc(Cl)c(Cl)c2)C(=O)/C1=C/c1cccc(OC(=O)c2cccs2)c1 [EG]
23 | O=C(NC(=S)Nc1ccc(Cl)c(C(=O)O)c1)c1ccc(-c2ccccc2)cc1 [EH]
23 | O=C(O)c1cccc(NC(=S)NC(=O)c2ccc(-c3ccc(Cl)cc3)o2)c1 [EI]
23.4 | O=C(O)c1ccc(Cl)c(NC(=S)NC(=O)c2cc(I)ccc2Cl)c1 [EJ]
25.4 | O=C(NC(=S)Nc1ccccc1C(=O)O)c1ccc(-c2ccc(Cl)cc2)o1 [EO]
26 | CCCCOc1cccc(C(=O)Nc2ccc(S(=O)(=O)Nc3nnc(CC)s3)cc2)c1 [EP]
26 | COc1c(Cl)cc(Cl)cc1C(=O)NC(=S)Nc1ccc(C(=O)O)cc1 [EQ]
26.2 | Cc1c(C(=O)NC(=S)Nc2cc(C(=O)O)ccc2Cl)cccc1[N+](=O)[O-] [ER]
26.5 | Oc1ccccc1-c1n[nH]c(=S)n1Cc1ccccc1 [ES]
27.5 | CCOC(=O)c1ccc(N2NC(=O)/C(=C/c3ccc(OC(=O)c4cccs4)c(OC)c3)C2=O)cc1 [EW]
